Reference: US11299510B2, “Substituted pyridopyrrolopyrimidine ribonucleosides for therapeutic uses” (USTAV ORGANICKE CHEMIE A BIOCHEMIE AV CR, V.V.I., priority 2018, dated 2022)

Experiments:
Assay type in all cases: cell-based
[1] = system: A549 (human lung adenocarcinoma); assay: cytotoxic MTS test, A549; conditions: A549 cells
Excerpt: (§1) To evaluate the antitumor activity of newly prepared compounds for in vitro conditions, we used cytotoxic MTS test (Nosková V. et al., Neoplasma 2002, 49, 418-425) on cell lines derived from normal tissues or tumors. Specifically, cell lines K562 (human acute myeloid leukemia); K562-Tax (human acute myeloid leukemia, paclitaxel resistant subline, overexpress multiple drug resistant protein PgP); CEM (T-lymfoblastic leukemia); CEM-DNR-bulk (T-lymfoblastic leukemia, doxorubicin resistant); A549 (human lung adenocarcinoma); HCT116p53 wt (human colorectal cancer, wild-type); HCT116p53−/−(human colorectal cancer, mutant p53) a U2OS (human bone osteosarcoma) were used. Express characteristics, susceptibility profiles of classic antitumor drugs as well as methodology of cytotoxic MTS test have been repeatedly published (Denizot, F.; Lang, R., J. Immunol. Meth. 1986, 89, 271-277; Noskova, V., see above; Šarek J. et al., J, Med. Chem., 2003, 46, 5402-5415).

Hep G2 = assay: cytotoxic MTS test, Hep G2; conditions: Homo sapiens, HepG2; Hep G2 cells
[2] = system: HCT116p53 wt (human colorectal cancer, wild-type); assay: cytotoxic MTS test, HCT116; conditions: HCT-116, HCT116 cells
Excerpt: as §1

[3] = system: BJ (normal human fibroblasts); assay: cytotoxic MTS test, BJ; conditions: BJ cells
[4] = system: K562-Tax (human acute myeloid leukemia, paclitaxel resistant subline); assay: cytotoxic MTS test, K562-TAX; conditions: K562-TAX cells
Excerpt: as §1

HeLa = assay: cytotoxic MTS test, HeLa; conditions: Homo sapiens; HeLa cells
[5] = system: CEM (T-lymfoblastic leukemia); assay: cytotoxic MTS test, CEM; conditions: Homo sapiens, CCRF-CEM; CEM cells
Excerpt: as §1

[6] = system: MRC-5 (normal human fibroblasts); assay: cytotoxic MTS test, MRC-5; conditions: MRC5, MRC-5 cells
CCRF-CEM = assay: cytotoxic MTS test, CCRF-CEM; conditions: Homo sapiens; CCRF-CEM cells
Excerpt: as §1

HL 60 = assay: cytotoxic MTS test, HL 60; conditions: Homo sapiens; HL 60 cells
[7] = system: HCT116p53−/− (human colorectal cancer, mutant p53); assay: cytotoxic MTS test, HCT116p53; conditions: HCT116p53 cells
Excerpt: as §1

[8] = system: U2OS (human bone osteosarcoma); assay: cytotoxic MTS test, U2OS; conditions: U2OS cells
Excerpt: as §1

[9] = system: CEM-DNR-bulk (T-lymfoblastic leukemia, doxorubicin resistant); assay: cytotoxic MTS test, CEM-DNR; conditions: Homo sapiens; CEM-DNR cells
Excerpt: as §1

[10] = system: K562 (human acute myeloid leukemia); assay: cytotoxic MTS test, K562; conditions: K562 cells
Excerpt: as §1

SMILES	IC50 [1] [µM]	IC50 (Hep G2) [µM]	IC50 [2] [µM]	IC50 [3] [µM]	IC50 [4] [µM]	IC50 (HeLa) [µM]	IC50 [5] [µM]	IC50 [6] [µM]	IC50 (CCRF-CEM) [µM]	IC50 (HL 60) [µM]	IC50 [7] [µM]	IC50 [8] [µM]	IC50 [9] [µM]	IC50 [10] [µM]
Cc1ncnc2c1c1ccncc1n2[C@@H]1O[C@H](CO)[C@@H](O)[C@H]1O [Compound 2d, 4-methyl-9-(β-D-ribofuranosyl)-9H-pyrido[4′,3′:4,5]pyrrolo[2,3-d]pyrimidine]	> 50	0.9 to 10	0.9 to 10	0.9 to 10	0.9 to 10	0.9 to 10	0.2 to 0.9	> 50	0.2 to 0.9	0.2 to 0.9	0.9 to 10	0.9 to 10	0.9 to 10	0.9 to 10
CSc1ncnc2c1c1ncccc1n2[C@@H]1O[C@H](CO)[C@@H](O)[C@H]1O [Compound 1b, 4-(methylsulfanyl)-9-(β-D-ribofuranosyl)-9H-pyrido[2′,3′:4,5]pyrrolo[2,3-d]pyrimidine]	> 50	> 50	> 50	> 50	> 50	> 50	> 50	> 50	> 50	> 50	> 50	> 50	> 50	> 50
OC[C@H]1O[C@@H](n2c3cnccc3c3c(-c4ccoc4)ncnc32)[C@H](O)[C@@H]1O [Compound 2g, 4-(furan-3-yl)-9-(β-D-ribofuranosyl)-9H-pyrido[4′,3′:4,5]pyrrolo[2,3-d]pyrimidine]	> 50	> 50	> 50	> 50	> 50	> 50	> 50	> 50	> 50	> 50	> 50	> 50	> 50	> 50
Nc1ncnc2c1c1ncccc1n2[C@@H]1O[C@H](CO)[C@@H](O)[C@H]1O [Compound 1c, 4-amino-9-(β-D-ribofuranosyl)-9H-pyrido[2′,3′:4,5]pyrrolo[2,3-d]pyrimidine]	> 50	0.9 to 10	25 to 50	0.9 to 10	> 50	> 50	> 50	> 50	0.2 to 0.9	0.2 to 0.9	25 to 50	0.9 to 10	> 50	25 to 50
COc1ncnc2c1c1ncccc1n2[C@@H]1O[C@H](CO)[C@@H](O)[C@H]1O [Compound 1a, 4-methoxy-9-(β-D-ribofuranosyl)-9H-pyrido[2′,3′:4,5]pyrrolo[2,3-d]pyrimidine]	> 50	> 50	> 50	> 50	> 50	> 50	> 50	> 50	> 50	> 50	> 50	> 50	> 50	> 50
OC[C@H]1O[C@@H](n2c3cnccc3c3c(-c4ccsc4)ncnc32)[C@H](O)[C@@H]1O [Compound 2h, 4-(thiophen-3-yl)-9-(β-D-ribofuranosyl)-9H-pyrido[4′,3′:4,5]pyrrolo[2,3-d]pyrimidine]	> 50	> 50	> 50	> 50	> 50	> 50	> 50	> 50	> 50	> 50	> 50	> 50	> 50	> 50
Cc1ncnc2c1c1ncccc1n2[C@@H]1O[C@H](CO)[C@@H](O)[C@H]1O [Compound 1d, 4-methyl-9-(β-D-ribofuranosyl)-9H-pyrido[2′,3′:4,5]pyrrolo[2,3-d]pyrimidine]	> 50	> 50	> 50	> 50	> 50	> 50	> 50	> 50	0.2 to 0.9	> 50	> 50	0.9 to 10	> 50	10 to 25
OC[C@H]1O[C@@H](n2c3cnccc3c3c(-c4ccco4)ncnc32)[C@H](O)[C@@H]1O [Compound 2f, 4-(furan-2-yl)-9-(β-D-ribofuranosyl)-9H-pyrido[4′,3′:4,5]pyrrolo[2,3-d]pyrimidine]	> 50	> 50	> 50	> 50	> 50	> 50	> 50	> 50	> 50	> 50	> 50	> 50	> 50	> 50
OC[C@H]1O[C@@H](n2c3cccnc3c3c(-c4ccoc4)ncnc32)[C@H](O)[C@@H]1O [Compound 1g, 4-(furan-3-yl)-9-(β-D-ribofuranosyl)-9H-pyrido[2′,3′:4,5]pyrrolo[2,3-d]pyrimidine]	> 50	> 50	> 50	> 50	> 50	> 50	> 50	> 50	> 50	> 50	> 50	> 50	> 50	> 50
CSc1ncnc2c1c1ccncc1n2[C@@H]1O[C@H](CO)[C@@H](O)[C@H]1O [Compound 2b, 4-(methylsulfanyl)-9-(β-D-ribofuranosyl)-9H-pyrido[4′,3′:4,5]pyrrolo[2,3-d]pyrimidine]	10 to 25	0.9 to 10	0.2 to 0.9	> 50	0.9 to 10	0.9 to 10	0.2 to 0.9	> 50	0.2 to 0.9	0.2 to 0.9	0.2 to 0.9	0.2 to 0.9	0.9 to 10	0.2 to 0.9
Nc1ncnc2c1c1ccncc1n2[C@@H]1O[C@H](CO)[C@@H](O)[C@H]1O [Compound 2c, 4-amino-9-(β-D-ribofuranosyl)-9H-pyrido[4′,3′:4,5]pyrrolo[2,3-d]pyrimidine]	0.9 to 10	0.2 to 0.9	0.2 to 0.9	0.9 to 10	0.9 to 10	0.9 to 10	0.2 to 0.9	> 50	0.2 to 0.9	0.2 to 0.9	0.2 to 0.9	0.2 to 0.9	0.9 to 10	0.2 to 0.9
